Measured values published in patent US7731971B2, “Enhanced CTL epitope-containing HIV-1 reverse transcriptase polypeptides” (The United States of America as represented by the …, priority 2003, dated 2010).

Experiments:
[1] = tested on: vaccinia virus expressing a reverse transcriptase protein of HIV (vCF21); design: species or system HHD-2 mice; details: mouse, in vivo
[2] = tested on: vaccinia virus expressing a β-galactosidase protein (vSC8); design: species or system HHD-2 mice; details: mouse, in vivo

YLYQYMDDV
protection against vCF21 infection [1]: only partially protected | protection against vaccinia strain (vSC8) that does not express RT [2]: Neither population of mice displayed protection
